Assay results: patent US20100168210A1, “T-Cell Cytokine-Inducing Surface Molecules and Methods of Use” (priority 2007, published 2010)

Tests used:
[1] = system: LPS-stimulated TNFα and IL-1β production; test: LPS-stimulated Mφ cytokine production; assay type: cell-based, human; conditions: FIG. 14
Excerpt: Using the T cell membrane-Mφ cell contact bioassay, small molecule antagonists were identified that differentially block anti-CD3/anti-CD28 activated T-cell mediated—but not LPS stimulated—TNFα and IL-1β production from peripheral blood resident CD14^+ Mφ. Several kinase inhibitors were selected and assessed for the effects of these compounds in blocking TNFα and/or IL-1β production using a validated T-cell membrane-Mφ contact bioassay. […] Therefore, the activated T-cell membrane-Mt contact bioassay using human T-cells and Mφ can be used to establish high-throughput screens with recombinant TCISM (once identified and cloned) to identify orally-active, small molecule antagonists that specifically target adaptive, but not LPS-mediated, innate immunity. Some orally active, small molecule TNFα and/or IL-1β inhibitors which interfere specifically with T-cell mediated Mφ activation, leading to enhanced cytokine production but not LPS-mediated Mφ cytokine release, have a favorable therapeutic/side effect profile in T-cell mediated skin diseases such as Ps.

[2] = system: T-cell-mediated TNFα production from human Mφ; test: T cell membrane-Mφ cell contact bioassay (activated T-cell mediated cytokine production); assay type: cell-based; conditions: anti-CD3/anti-CD28 activated T-cell membranes; CD14+ Mφ; FIG. 14
Method: Primary T cells or H9 cells were washed with cold PBS and cell pellets were resuspended in freshly made 1% paraformaldehyde at 5×10^6 cells/ml. Cells were fixed on ice for 2 hours, and then washed with 20× volume of cold PBS three times. Following the third wash, the cells were kept in PBS at 4° C. overnight to allow diffusion of paraformaldehyde. Cells were centrifuged and washed one more time. The fixed T cells were resuspended in medium at 1×10^7 cells/ml and dispensed into a 96 well U bottom plate at about 1×10^6/ml THP-1 cells 100 μl per well. Primary T cells or H9 cells (100 μl per well) were added at 8×, 4×, and 2×10^6 cells/ml. The plates were incubated at 37° C., in humidified 5% CO2 for 48 hours. Plates were centrifuged at 1,500 rpm for 5 minutes and supernatant (120 μl) transferred into a fresh plate. The supernatant was stored at −20° C. until used. […]
Using the T cell membrane-Mφ cell contact bioassay, small molecule antagonists were identified that differentially block anti-CD3/anti-CD28 activated T-cell mediated—but not LPS stimulated—TNFα and IL-1β production from peripheral blood resident CD14^+ Mφ. Several kinase inhibitors were selected and assessed for the effects of these compounds in blocking TNFα and/or IL-1β production using a validated T-cell membrane-Mφ contact bioassay. […]

[3] = system: Murine Collagen-Induced Arthritis; test: Murine Collagen-Induced Arthritis study; assay type: in vivo, mice; conditions: 50 mg/kg P.O. once per day beginning at day +1; day +13 after induction; FIG. 18
Method: Mice were immunized with CII+CFA on day 0 and boosted on day 21 with CII+IFA. A total of 10 DBA female mice per group were used. Drugs were administered as shown and started on the first day of initial signs of paw swelling/arthritis. Mean arthritis score (see data below) was assessed according to the procedure of Bendele et al., Arthritis & Rheumatism, 2000, 43(12), pp 2648-2659. […] Mice were treated 8 days after showing signs of collagen induced arthritis.
FIG. 18 is a joint histopathology of representative mice. In FIG. 18, panel A denotes a knee joint obtained from a DBA mouse with collagen-induced arthritis treated with an isotype-control rat-anti-mouse MAb (negative control) showing that […] over the course of this control treatment.

C[S+]([O-])c1ccccc1-n1cnc(-c2ccc(F)cc2)c1-c1ccncc1 (stereo not drawn) [Compound C]
Effect on LPS-stimulated TNFα and IL-1β production [1]: without having any significant effect | Inhibition of T-cell-mediated TNFα production from human Mφ [2]: completely inhibit | Joint histopathology (knee joint inflammation) [3]: reduced inflammation
